Key:
[1] = target: T1, hGzmA (Homo sapiens, UniProt P12544); assay: Granzyme A cleavage assay (fluorogenic substrate); type: biochemical; details: hGzmA 50 nM, inhibitor 200 nM, substrate 100 μM, 50 mM Tris, 150 mM NaCl, 0.01% Triton X-100 pH 8, 15 h, 37 °C, Ex/Em 380/460 nm, mean ± SD n = 3
T1 construct: active, mature form; purchased Enzo Life Sciences ALX-201-118-C010
T1 sequence (P12544 29-262): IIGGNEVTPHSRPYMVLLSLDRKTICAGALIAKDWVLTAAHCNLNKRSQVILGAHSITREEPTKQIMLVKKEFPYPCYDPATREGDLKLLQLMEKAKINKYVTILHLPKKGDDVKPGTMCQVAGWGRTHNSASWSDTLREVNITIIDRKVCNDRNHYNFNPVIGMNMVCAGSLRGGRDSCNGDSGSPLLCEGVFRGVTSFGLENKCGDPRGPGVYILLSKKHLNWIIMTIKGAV
Procedure: Figure 1 GzmA phosphonate and phosphinate inhibitors. A) Synthesis of phosphonate warhead I‐3. B) Synthesis of phosphosphinate warhead I‐4. C) Synthesis of Ac‐IGNR‐PO(OPh)2 1 and Ac‐IGNR‐PO(OPh)Ph 2. D) GzmA inhibition. hGzmA (50 nM) was incubated with inhibitor 1 or 2 (200 nM) and GzmA fluorogenic substrate (Ac‐Oic‐Gly‐Pro‐Arg‐PABA‐MU, 100 μM) for 15 h at 37 °C. Fluorescence at Ex/Em: 380/460 nm was recorded for residual GzmA proteolytic activity.
A. Granzyme A cleavage assay
Briefly, hGzmA (50 nM) was incubated with either inhibitor 1 or 2 (200 nM), and GzmA fluorogenic substrate […] (100 µM) in 50 mM Tris, 150 mM NaCl, 0.01% Triton X-100 (pH 8) for 15 hr at 37 °C. Recorded fluorescence at Ex/Em: 380/460 nm for residual GzmA […]
Cat. No. CRL-2570) and 4T1 (ATCC Cat. No. CRL-2539) cells were cultured in RPMI supplemented with 10% fetal bovine serum (FBS), 1% penicillin/streptomycin (PS), and 2 mM L-glutamine, while HEK293T and MDA-MB-231 cells (ATCC Cat. No. HTB-26) were cultured in DMEM supplemented likewise as described above. […] The supernatant was collected, and protein concentration was measured using a Pierce BCA protein assay. […]
C. In-gel fluorescence imaging […]
Conditions for probe/inhibitor treatment for in-gel fluorescence analysis: Inhibitors and probes were incubated with active (or pro-) GzmA followed by treatment with 4X SDS reducing sample buffer. […]

[2] = target: T2, recombinant human GzmA (hGzmA) (Homo sapiens, UniProt P12544); assay: In-gel fluorescence labeling of recombinant active hGzmA; type: biochemical; details: hGzmA 100 nM preincubated with inhibitor 5 μM 2 h, then ABPs 3–5 50 nM 2 h, 37 °C
T2 construct: active, mature form; purchased Enzo Life Sciences ALX-201-118-C010
T2 sequence (P12544 29-262): T1 sequence (P12544 29-262)
Procedure: Figure 3 GzmA ABPs covalently and competitively label active human and mouse GzmA. […] Recombinant hGzmA (100 nM) was incubated with varying concentrations of each ABP at 37 °C. B) Competitive labeling of hGzmA. Recombinant hGzmA (100 nM) was preincubated with covalent inhibitors 1 or 2 (5 μM) for 2 h, followed by labeling with ABPs 3 –5 (50 nM) for 2 h at 37 °C. Note: Pro‐form of hGzmA (the first lane) is not effectively stained by SYPRO‐Ruby. C) Structure of qABP 6. D) Quenched natures of 5 and 6. […] F) Labeling of mGzmA (1 μM) with 5 and 6 (1 μM, 24 h, 37 °C). Protein samples were analyzed by SDS‐PAGE and in‐gel fluorescence scanning for Cy5 signal and SYPRO Ruby staining. […]
C. In-gel fluorescence imaging
For recombinant enzyme labeling, working solutions of hGzmA (purchased from R&D Systems, Cat. No. 2905-SE-010 for pro-from and Enzo Life Sciences, Cat. No.: ALX-201-118-C010 for active, mature form) were prepared by diluting a 12.6 µM stock in the following assay buffer: 50 […]
mM Tris, 100 mM NaCl, 5 mM CaCl2, 0.01% (v/v) Tween-20, pH 7.5. […]
In-gel fluorescence and
SYPRO-Ruby staining images were acquired on a Typhoon FLA9500 instrument, while western blot images were acquired on an AMHERST ImageQuant 800 instrument.
Conditions for probe/inhibitor treatment for in-gel fluorescence analysis: Inhibitors and probes were incubated with active (or pro-) GzmA followed by treatment with 4X SDS reducing sample buffer. Samples were then heated to 100 °C for 5 min, brought to room temperature, and centrifuged. 20 µL of each sample was loaded onto a 15% polyacrylamide gel, which was then subjected to electrophoresis followed by the acquisition of in-gel fluorescence images. GzmA labeling was confirmed by western blotting, while protein loading was confirmed with SYPRO-Ruby staining. Incubation conditions for each figure/experiment are described below:
Conditions for Figure 3A: For labeling comparison between 3, 4, and 5, 100 nM of human GzmA was incubated with various concentrations of each probe for 2 h at 37 °C. For time-dependent labeling, 50 nM of 5 was incubated with 100 nM of human GzmA at 37 °C for the specified durations. Final reaction volume for both was 20 µL.
Conditions for Figure 3B: 100 nM of human GzmA was incubated with DMSO or 5 µM of 1 or 2 for 2 h at 37 °C in Eppendorf tubes. 0.5 µL of a 2 µM solution of 3, 4, or 5 in DMSO was then spiked into the Eppendorf tube, yielding a final probe concentration of 50 nM. The solution was incubated for another 2 h at 37 °C. Final reaction volume was 20 µL.
Conditions for Figure 3E: 100 nM of human GzmA was incubated with various concentrations of 5 or 6, respectively, for 2 h at 37 °C. Final reaction volume was 20 µL.
Conditions for Figure 3F: 1 µM of mouse GzmA was incubated with 1 µM of 5 or 6, respectively, for 24 h at 37 °C. Final reaction volume was 20 µL.
Conditions for Figure 4A: 1 mg/mL of lysates was incubated with various concentrations of 5 or 6, respectively, for 1 h at 37 °C.
Conditions for Figure 4C: Various concentrations of probes 3-6 were incubated with 1x10^6 NK-92 cells for 2 h at 37 °C in a humidified incubator. Cells were centrifuged, washed with PBS (x2) and lysed with ~40 µL of ice-cold RIPA buffer. Lysates were collected, protein concentration was measured with PIERCE BCA protein assay and samples were analyzed with in-gel fluorescence and GzmA western blotting. […]
All flow cytometry data were collected on BD LSRFortessa and FACSymphony A5 Cell Analyzers and analyzed with FlowJo software. Briefly, cells were processed according to the intended protocols for each experiment. Thereafter, cells were pelleted, fixed in the dark for 20 min at room temperature (Fixation buffer: BioLegend #420801), and pelleted again by centrifugation. Fixed cells were then resuspended in 1x intracellular staining perm wash buffer (BioLegend #421002), followed by centrifugation two times. Fixed/Permeabilized cells were then resuspended in […]

| Compound | Inhibition of GzmA‐mediated cleavage of a fluorogenic substrate (residual GzmA proteolytic activity) [1] | Blocking of ABP labeling of hGzmA by inhibitor pretreatment [2] |
| --- | --- | --- |
| CC[C@H](C)[C@H](NC(C)=O)C(=O)NCC(=O)N[C@@H](CC(N)=O)C(=O)NC(CCCNC(=N)N)P(=O)(Oc1ccccc1)Oc1ccccc1 (stereo partly shown) [compound 1, Ac‐IGNR‐PO(OPh)2] | comparable potency | competitively blocked |
| CC[C@H](C)[C@H](NC(C)=O)C(=O)NCC(=O)N[C@@H](CC(N)=O)C(=O)NC(CCCNC(=N)N)P(=O)(Oc1ccccc1)c1ccccc1 (stereo partly shown) [compound 2, Ac‐IGNR‐PO(OPh)Ph] | comparable potency | competitively blocked |
